Laboratory results as given in US20050124618A1, “Methods of modulating angiogenesis and cancer cell proliferation” (priority 2003, published 2005).
Entries after “also recorded” stand apart in the source; their conditions may differ.

Key:
9L gliosarcoma tumors = test: Growth of 9L gliosarcoma brain tumors in rats (tumor volume); type: in vivo, rat
Protocol: Tumor Implantation: Before implantation, 90% confluent 9L cells were trypsinized and centrifuged. The cell pellet was resuspended in DMEM+10% FBS and counted using a hemocytometer. The concentration of the 9L cells was adjusted to 1×10^4 cells/5 μl of medium. p The brain tumors were seeded by injecting the 9L cell suspensions into the frontal cerebral cortex of Fisher 344 rats that were purchased from Charles River Laboratories (Wilmington, Mass.) as follows. The rats were anesthetized with ketamine (80 mg/Kg, im) and Xylazine (13 mg/Kg), the head was immobilized in a stereotactic frame (David Kopf Instruments, Tujunga, Calif.) and the skull was exposed. A small hole was drilled in the skull 2 mm lateral and 2.5 mm anterior of the bregma, and 5 μl of the 9L gliosarcoma cell suspension were injected 3.5 mm into to cerebral cortex over a 5 min period using a 10 μl Hamilton (#2701) syringe attached to a 26 gauge needle. The hole was sealed with bone wax and the incisions were closed. […] The brains were removed and stored in 10% formalin. […]
Images of H&E stained sections containing tumor were captured using a SONY CCD camera using 2× objective. Using the AIS Image Analysis System (Imaging Research, St. Catherine, ON, Canada) software, the area of tumor in each section was manually outlined and measured in mm^2. […]

U251 human glioma cells = test: U251 cell proliferation assay (cell counting); type: cell-based
Protocol: Culture Conditions: Cells were routinely maintained in DMEM (Invitrogen) supplemented with 10% heat-inactivated fetal bovine serum (FBS), penicillin (10 IU/ml), streptomycin (10 μg/ml) and 10% non-essential amino acids (all purchased from Invitrogen). Cells were maintained at 37° C. in a humidified incubator containing 5% CO2. They were grown in medium containing 10% FBS, which was then replaced with serum-free medium where U251 cells grow exponentially. Treatments were initiated one day after serum removal.
(§1) Cell Proliferation Assays: Proliferation studies were performed with cultures plated at a density that ensured exponential growth for at least 5 days. Growth medium was generally replaced by serum-free medium 24 hr after plating. Cells were treated with various concentrations of a given compounds for 24 or 48 hr as described in the Methods. […] Organic solvent never exceeded 0.1% of total culture volume. Cells were harvested by exposure to 0.05% trypsin/EDTA and counted using a hemocytometer.

[1] = tested on: primary human keratinocytes; test: Proliferation of primary human keratinocytes (comparison with U251); type: cell-based; conditions: 10 μM HET0016, 48 hrs; DDMS concentration not given
Protocol: Mean values±SD from three separate experiments, each performed in triplicate, are presented. *** indicates p<0.001 from the respective control values.
as §1

[2] = tested on: U251 human glioma cells spheroids; test: U251 spheroid-induced angiogenesis in the rat cornea pocket; type: in vivo; conditions: 20 μg HET0016 pellet
Protocol: (iii) U251 human glioma cells spheroids: U251 human glioma cells were generously provided by Dr. Stephen Brown (Dept. of Radiation Oncology, Henry Ford Health System, Detroit, Mich.). The cells were maintained in DMEM (Invitrogen) supplemented with 10% heat-inactivated fetal bovine serum, penicillin (10 IU/ml), streptomycin (10 μg/ml) and 10% non-essential amino acids and grown at 37° C. in a humidified incubator containing 5% CO2. U251 spheroids were obtained by a modification of the method of Carlsson and Yuhas (Carlsson J and Yuhas J M, Recent Results Cancer Res 1984, 95:1-23). […] Spheroid diameter was measured using a dissection microscope equipped with a ruler. […]
(iv) Quantitation of corneal neovascularization: Seven days after pellet implantation, the rats were deeply anesthetized as previously described with ketamine and xylazine. […]
Neovascularization was determined by comparing total vessel length in the control and experimental eyes. Vessel length was determined by tracing each vessel from the limbus to the pellet. Total length is the sum of these values in pixels and was determined using conventional image analysis software (Sigma Scan Pro, SPSS, Chicago, Ill.)
For these experiments, we used the human glioblastoma cancer cell line U251, known to be angiogenic (Hsu S C et al., Cancer Res 1996, 56:5684-91). […] Angiogenic responses were assessed 14 days after implantation of the spheroids.

CCCCc1ccc(N=CNO)c(C)c1 [HET0016, N-hydroxy-N′-(4-butyl-2 methylphenyl) formamidine]
reduction of the volume of the brain tumor compared to control animals (9L gliosarcoma tumors; 9L cells in rat forebrain, HET0016 10 mg/kg/day sc for 15 days, b179 prints 1 mg/Kg/day, ip, about 2 weeks): 80% | appearance of rats and tumor size at necropsy (9L gliosarcoma tumors; 17 days after implantation of the tumor): looked healthier; also recorded: much smaller tumor at necropsy | effect on EGF-induced proliferation of U251 cells (U251 human glioma cells; 200 ng/ml EGF + 10 μM HET0016, 48 hr): inhibited; also recorded: inhibits the effects of EGF | inhibition of proliferation of U251 cancer cells (FIG. 17) (U251 human glioma cells; 96-well plates, HET0016 for 48 hrs): about 50% | inhibition at 10 µM (U251 human glioma cells; Homo sapiens, U-251, 48 h): ~60% | concentration dependence of inhibition of U251 proliferation (U251 human glioma cells; various concentrations): suppressed by HET0016 in a concentration-dependent manner | effect on basal growth or proliferation of primary human keratinocytes [1]: Neither DDMS or HET0016 had any effect; also recorded: had no effect on the basal growth or proliferation; also recorded: had no effect on the proliferation | effect on corneal neovascularization induced by U251 spheroids ([2]; 2 weeks): significantly inhibited; also recorded: decreases angiogenesis | decrease of angiogenic responses to U251 spheroids ([2]; 14 days after implantation): approximately 70%
